Read-outs that look alike come from different tables or passages of the source.
How the values were obtained:
delta opioid receptor = target: T1, delta opioid receptor (Rattus norvegicus, UniProt P33533); test: Rat Brain Delta Opioid Receptor Binding Assay
T1 construct: from tissue; host or cells: forebrain of male Wistar rats (particulate membrane preparation)
Protocol: Procedure: Male, Wistar rats (150-250 g, VAF, Charles River, Kingston, N.Y.) were killed by CO2, and their brains were removed and placed immediately in ice cold Tris HCl buffer (50 mM, pH 7.4). The forebrains were separated from the remainder of the brain by a coronal transection, beginning dorsally at the colliculi and passing ventrally through the midbrain-pontine junction. After dissection, the forebrains were homogenized in Tris buffer in a Teflon®-glass homogenizer. The homogenate was diluted to a concentration of 1 g of forebrain tissue per 80 mL Tris and centrifuged at 39,000×g for 10 min. The pellet was resuspended in the same volume of Tris buffer containing 5 mM MgCl2 with several brief pulses from a Polytron homogenizer. This particulate preparation was used for the delta opioid binding assays. Following incubation with the delta selective peptide ligand ˜4 nM [^3H]DPDPE or 0.15 nM [^3H]naltrindole at 25° C. for 2.5 h in a 96-well plate with total volume of […], the plate contents were filtered through Wallac filtermat B sheets on a Tomtec 96-well harvester. The filters were rinsed three times with 2 mL of 10 mM HEPES (pH 7.4), and dried in a 650 W microwave oven for 1.75 min twice. To each sample area 2×50 μL of Betaplate Scint scintillation fluid (LKB) was added and the radioactivity was quantified on a LKB (Wallac) 1205 BetaPlate liquid scintillation counter.
(§1) Analysis: The data from the scintillation counter was used to calculate either the % inhibition compared to control binding (when only a single concentration of test compound was evaluated) or a Ki value (when a range of concentrations was tested). Percent inhibition was calculated as: [(total dpm-test compound dpm)/(total dpm-nonspecific dpm)]*100. Kd and Ki values were calculated using GraphPad PRISM data analysis program.

mu opioid receptor = target: T2, mu opioid receptor (Rattus norvegicus, UniProt P33535); test: Rat Brain Mu Opioid Receptor Binding Assay
T2 construct: from tissue; host or cells: forebrain of male Wistar rats (particulate membrane preparation)
Protocol: Procedure: Male, Wistar rats (150-250 g, VAF, Charles River, Kingston, N.Y.) were killed by CO2, and their brains were removed and placed immediately in ice cold Tris HCl buffer (50 mM, pH 7.4). The forebrains were separated from the remainder of the brain by a coronal transection, beginning dorsally at the colliculi and passing ventrally through the midbrain-pontine junction. After dissection, the forebrains were homogenized in Tris buffer in a Teflon®-glass homogenizer. The homogenate was diluted to a concentration of 1 g of forebrain tissue per 80 mL Tris and centrifuged at 39,000×g for 10 min. The pellet was resuspended in the same volume of Tris buffer containing 5 mM MgCl2 with several brief pulses from a Polytron homogenizer. This particulate preparation was used for the mu opioid binding assays.
as §1

[1] = rat forebrain membranes, [3H]DPDPE or [3H]naltrindole, 25° C., 2.5 h, read-out: delta (Ki)
[2] = rat forebrain membranes, [3H]DAMGO, 25° C., 2.5 h, read-out: mu (Ki)

T2 sequence (P33535 whole entry): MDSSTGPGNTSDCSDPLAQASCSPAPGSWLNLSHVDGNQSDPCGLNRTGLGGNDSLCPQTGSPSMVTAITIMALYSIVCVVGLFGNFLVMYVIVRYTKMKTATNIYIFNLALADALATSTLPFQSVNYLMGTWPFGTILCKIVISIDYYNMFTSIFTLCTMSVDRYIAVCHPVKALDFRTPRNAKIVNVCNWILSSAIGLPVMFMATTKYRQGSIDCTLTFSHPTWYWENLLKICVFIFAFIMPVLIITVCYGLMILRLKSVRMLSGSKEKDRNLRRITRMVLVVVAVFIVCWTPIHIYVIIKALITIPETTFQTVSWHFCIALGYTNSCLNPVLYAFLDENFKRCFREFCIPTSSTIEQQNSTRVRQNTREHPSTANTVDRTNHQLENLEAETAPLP
T1 sequence (P33533 whole entry): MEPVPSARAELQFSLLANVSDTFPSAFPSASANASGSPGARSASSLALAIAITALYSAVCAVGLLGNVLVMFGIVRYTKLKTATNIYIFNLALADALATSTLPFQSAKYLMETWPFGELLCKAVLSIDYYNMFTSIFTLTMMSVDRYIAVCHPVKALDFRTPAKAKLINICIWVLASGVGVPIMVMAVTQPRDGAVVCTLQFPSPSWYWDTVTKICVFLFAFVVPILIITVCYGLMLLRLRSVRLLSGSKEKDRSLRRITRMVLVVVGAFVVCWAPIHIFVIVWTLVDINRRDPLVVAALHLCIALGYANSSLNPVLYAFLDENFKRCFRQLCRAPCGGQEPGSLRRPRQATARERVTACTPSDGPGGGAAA

## CCN(CC)C(=N)c1ccc2c(c1)Oc1ccccc1C2C1CCNCC1 (stereo not shown) [1p, N,N-Diethyl-9-piperidin-4-yl-9H-xanthene-3-carboxamidine]
Delta opioid receptor
  Ki: 51.1 nM
Mu opioid receptor
  Ki: > 10000 nM

## CC(=O)Nc1ccccc1-c1ccc2c(c1)Oc1ccccc1C2C1CCNCC1 (stereo not shown) [2g, N-[2-(9-Piperidin-4-yl-9H-xanthen-3-yl)-phenyl]-acetamide]
Delta opioid receptor; [1]
  Ki: 1020 nM
Mu opioid receptor; [2]
  Ki: > 10000 nM

## c1ccc2c(c1)Oc1cc(-c3ccncc3)ccc1C2C1CCNCC1 (stereo not shown) [2h, 4-(9-Piperidin-4-yl-9H-xanthen-3-yl)-pyridine]
Delta opioid receptor; [1]
  Ki: 4530 nM
Mu opioid receptor; [2]
  Ki: > 10000 nM

## O=c1[nH]c(-c2ccc3c(c2)Oc2ccccc2C3C2CCNCC2)no1 (stereo not shown) [2m, 3-(9-Piperidin-4-yl-9H-xanthen-3-yl)-4H-[1,2,4]oxadiazol-5-one]
Delta opioid receptor
  Ki: 634 nM
Mu opioid receptor
  Ki: > 10000 nM

## CC(=O)Nc1ccccc1-c1ccc2c(c1)Oc1ccccc1C2C1CCN(Cc2ccoc2)CC1 (stereo not shown) [3g, N-{2-[9-(1-Furan-3-ylmethyl-piperidin-4-yl)-9H-xanthen-3-yl]-phenyl}-acetamide]
Delta opioid receptor
  Ki: 100 nM
Mu opioid receptor; [2]
  Ki: 4440 nM

## c1ccc2c(c1)Oc1cc(-c3ccncc3)ccc1C2C1CCN(Cc2ccoc2)CC1 (stereo not shown) [3h, 4-[9-(1-Furan-3-ylmethyl-piperidin-4-yl)-9H-xanthen-3-yl]-pyridine]
Delta opioid receptor
  Ki: 791 nM
Mu opioid receptor
  Ki: 4260 nM

## Oc1cccc2c1Oc1cc(-c3cccnc3)ccc1C2C1CCNCC1 (stereo not shown) [3i, 9-Piperidin-4-yl-6-pyridin-3-yl-9H-xanthen-4-ol]
Delta opioid receptor
  Ki: 242 nM
Mu opioid receptor
  Ki: > 10000 nM

## c1ccc2c(c1)Oc1cc(-c3nnn[nH]3)ccc1C2C1CCNCC1 (stereo not shown) [3l, 4-[3-(1H-Tetrazol-5-yl)-9H-xanthen-9-yl]-piperidine]
Delta opioid receptor; [1]
  Ki: 768 nM
Mu opioid receptor; [2]
  Ki: > 10000 nM

## CCN(CC)C(=N)c1ccc2c(c1)Oc1ccccc1C2C1CCN(Cc2ccoc2)CC1 (stereo not shown) [3p, N,N-Diethyl-9-(1-furan-3-ylmethyl-piperidin-4-yl)-9H-xanthene-3-carboxamidine]
Delta opioid receptor
  Ki: 16.1 nM

## CC(=O)Nc1ccccc1-c1ccc2c(c1)Oc1c(O)cccc1C2C1CCNCC1 (stereo not shown) [4e, N-[2-(5-Hydroxy-9-piperidin-4-yl-9H-xanthen-3-yl)-phenyl]-acetamide]
Delta opioid receptor
  Ki: 38.1 nM
Mu opioid receptor; [2]
  Ki: 289 nM

## c1cncc(-c2ccc3c(c2)Oc2ccccc2C3C2CCNCC2)c1 (stereo not shown) [4f, 3-(9-Piperidin-4-yl-9H-xanthen-3-yl)-pyridine]
Delta opioid receptor; [1]
  Ki: 161 nM
Mu opioid receptor; [2]
  Ki: 1000 nM

## CC(=O)Nc1ccccc1-c1ccc2c(c1)Oc1ccccc1C2C1CCN(Cc2ccccn2)CC1 (stereo not shown) [4g, N-{2-[9-(1-Pyridin-2-ylmethyl-piperidin-4-yl)-9H-xanthen-3-yl]-phenyl}-acetamide]
Delta opioid receptor; [1]
  Ki: 167 nM
Mu opioid receptor; [2]
  Ki: 6980 nM

## c1ccc(CN2CCC(C3c4ccccc4Oc4cc(-c5ccncc5)ccc43)CC2)nc1 (stereo not shown) [4h, 4-[9-(1-Pyridin-2-ylmethyl-piperidin-4-yl)-9H-xanthen-3-yl]-pyridine]
Delta opioid receptor
  Ki: 2640 nM
Mu opioid receptor
  Ki: 2050 nM

## Oc1cccc2c1Oc1cc(-c3cccnc3)ccc1C2C1CCN(Cc2cccs2)CC1 (stereo not shown) [4i, 6-Pyridin-3-yl-9-(1-thiophen-2-ylmethyl-piperidin-4-yl)-9H-xanthen-4-ol]
Delta opioid receptor
  Ki: 96.7 nM

## c1ccc2c(c1)Oc1cc(-c3nnn[nH]3)ccc1C2C1CCN(Cc2ccoc2)CC1 (stereo not shown) [4l, 1-Furan-3-ylmethyl-4-[3-(1H-tetrazol-5-yl)-9H-xanthen-9-yl]-piperidine]
Delta opioid receptor; [1]
  Ki: 498 nM
Mu opioid receptor; [2]
  Ki: 6320 nM

## O=C(c1ccc2c(c1)Oc1ccccc1C2C1CCNCC1)N1CC[C@H](O)C1 (stereo partly drawn) [4n, (3-(S)-Hydroxy-pyrrolidin-1-yl)-(9-piperidin-4-yl-9H-xanthen-3-yl)-methanone]
Delta opioid receptor; [1]
  Ki: 434 nM
Mu opioid receptor; [2]
  Ki: > 10000 nM

## Oc1cccc2c1Oc1cc(-c3nnn[nH]3)ccc1C2C1CCNCC1 (stereo not shown) [4r, 9-Piperidin-4-yl-6-(1H-tetrazol-5-yl)-9H-xanthen-4-ol]
Delta opioid receptor
  Ki: 14 nM

## CCNC(=O)c1ccc2c(c1)Oc1c(O)cccc1C2C1CCNCC1 (stereo not shown) [5d, 5-Hydroxy-9-piperidin-4-yl-9H-xanthene-3-carboxylic acid ethylamide]
Delta opioid receptor; [1]
  Ki: 209 nM
Mu opioid receptor; [2]
  Ki: 876 nM

## CC(=O)Nc1ccccc1-c1ccc2c(c1)Oc1c(O)cccc1C2C1CCN(Cc2ccccn2)CC1 (stereo not shown) [5e, N-{2-[5-Hydroxy-9-(1-pyridin-2-ylmethyl-piperidin-4-yl)-9H-xanthen-3-yl]-phenyl}-acetamide]
Delta opioid receptor
  Ki: 0.1 nM

## Oc1cccc2c1Oc1cc(-c3cccnc3)ccc1C2C1CCN(Cc2ccccc2)CC1 (stereo not shown) [5i, 9-(1-Benzyl-piperidin-4-yl)-6-pyridin-3-yl-9H-xanthen-4-ol]
Delta opioid receptor
  Ki: 94 nM

## N#Cc1ccc2c(c1)Oc1c(O)cccc1C2C1CCNCC1 (stereo not shown) [5r, 5-Hydroxy-9-piperidin-4-yl-9H-xanthene-3-carbonitrile]
Delta opioid receptor; [1]
  Ki: 166 nM

## CC(=O)Nc1ccccc1-c1ccc2c(c1)Oc1c(O)cccc1C2C1CCN(Cc2cccs2)CC1 (stereo not shown) [6e, N-{2-[5-Hydroxy-9-(1-thiophen-2-ylmethyl-piperidin-4-yl)-9H-xanthen-3-yl]-phenyl}-acetamide]
Delta opioid receptor
  Ki: 0.1 nM

## C=CCN1CCC(C2c3ccc(-c4cccnc4)cc3Oc3c(O)cccc32)CC1 (stereo not shown) [6i, 9-(1-Allyl-piperidin-4-yl)-6-pyridin-3-yl-9H-xanthen-4-ol]
Delta opioid receptor
  Ki: 27.5 nM

## C=CCN1CCC(C2c3ccccc3Oc3cc(C(=O)N4CC[C@H](O)C4)ccc32)CC1 (stereo partly drawn) [7n, [9-(1-Allyl-piperidin-4-yl)-9H-xanthen-3-yl]-(3-(S)-hydroxy-pyrrolidin-1-yl)-methanone]
Delta opioid receptor; [1]
  Ki: 9230 nM

## COc1cccc2c1Sc1cc(-c3cccnc3)ccc1C2C1CCNCC1 (stereo not shown) [9q, 3-(5-Methoxy-9-piperidin-4-yl-9H-thioxanthen-3-yl)-pyridine]
Delta opioid receptor
  Ki: 87.8 nM

## Oc1cccc2c1Sc1cc(-c3cccnc3)ccc1C2C1CCNCC1 (stereo not shown) [10q, 9-Piperidin-4-yl-6-pyridin-3-yl-9H-thioxanthen-4-ol]
Delta opioid receptor
  Ki: 0.2 nM

## COc1cccc2c1Sc1cc(-c3ccncc3)ccc1C2C1CCNCC1 (stereo not shown) [11q, 4-(5-Methoxy-9-piperidin-4-yl-9H-thioxanthen-3-yl)-pyridine]
Delta opioid receptor
  Ki: 68.1 nM

## Oc1cccc2c1Sc1cc(-c3ccncc3)ccc1C2C1CCNCC1 (stereo not shown) [12q, 9-Piperidin-4-yl-6-pyridin-4-yl-9H-thioxanthen-4-ol]
Delta opioid receptor
  Ki: 0.7 nM

## COc1cccc2c1Sc1cc(-c3ccccc3NC(C)=O)ccc1C2C1CCNCC1 (stereo not shown) [13q, N-[2-(5-Methoxy-9-piperidin-4-yl-9H-thioxanthen-3-yl)-phenyl]-acetamide]
Delta opioid receptor; [1]
  Ki: 110 nM

## CC(=O)Nc1ccccc1-c1ccc2c(c1)Sc1c(O)cccc1C2C1CCNCC1 (stereo not shown) [14q, N-[2-(5-Hydroxy-9-piperidin-4-yl-9H-thioxanthen-3-yl)-phenyl]-acetamide]
Delta opioid receptor
  Ki: 0.2 nM

## Oc1cccc2c1Sc1cc(-c3ccncc3)ccc1C2C1CCN(Cc2ccccn2)CC1 (stereo not shown) [15q, 6-Pyridin-4-yl-9-(1-pyridin-2-ylmethyl-piperidin-4-yl)-9H-thioxanthen-4-ol]
Delta opioid receptor
  Ki: 0.1 nM

## C=CCN1CCC(C2c3ccc(-c4ccccc4NC(C)=O)cc3Sc3c(O)cccc32)CC1 (stereo not shown) [16q, N-{2-[9-(1-Allyl-piperidin-4-yl)-5-hydroxy-9H-thioxanthen-3-yl]-phenyl}-acetamide]
Delta opioid receptor; [1]
  Ki: 121 nM

## Oc1cccc2c1Sc1cc(-c3cccnc3)ccc1C2C1CCN(Cc2ccccn2)CC1 (stereo not shown) [18q, 6-Pyridin-3-yl-9-(1-pyridin-2-ylmethyl-piperidin-4-yl)-9H-thioxanthen-4-ol]
Delta opioid receptor
  Ki: 0.4 nM

## CC(=O)Nc1ccccc1-c1ccc2c(c1)Sc1c(O)cccc1C2C1CCN(Cc2ccccn2)CC1 (stereo not shown) [19q, N-{2-[5-Hydroxy-9-(1-pyridin-2-ylmethyl-piperidin-4-yl)-9H-thioxanthen-3-yl]-phenyl}-acetamide]
Delta opioid receptor
  Ki: 0.1 nM

Source: US20060135522A1, “Tricyclic delta-opioid modulators” (priority 2004, published 2006)
